From ChEMBL document CHEMBL1129734, “Synthesis and structure-activity relationships of a new model of arylpiperazines. 1. 2-[[4-(o-methoxyphenyl)piperazin-1-yl]methyl]-1, 3-dioxoperhydroimidazo[1,5-alpha]pyridine: a selective 5-HT1A receptor agonist” (J Med Chem, 1996)

Experiments:
Mus musculus [1] = assay: Effect on rectal temperature in mice at dose of 0.5 mg/kg sc.; assay type: functional
Mus musculus [2] = assay: Effect on rectal temperature in mice at dose of 10 mg/kg sc.; assay type: functional
Mus musculus [3] = assay: Effect on rectal temperature in mice at dose of 2.5 mg/kg sc.; assay type: functional
Mus musculus [4] = assay: Effect on rectal temperature in mice at dose of 5 mg/kg sc.; assay type: functional
Mus musculus [5] = species: Mus musculus; assay: Effect in the social interaction behavioral test in mice; assay type: functional
[6] = molecular target: T1, 5-hydroxytryptamine receptor 1A (Rattus norvegicus, UniProt P19327); assay: Binding affinity towards rat 5-hydroxytryptamine 1A receptor using [3H]8-OH-DPAT radioligand.
T1 sequence (P19327 whole entry): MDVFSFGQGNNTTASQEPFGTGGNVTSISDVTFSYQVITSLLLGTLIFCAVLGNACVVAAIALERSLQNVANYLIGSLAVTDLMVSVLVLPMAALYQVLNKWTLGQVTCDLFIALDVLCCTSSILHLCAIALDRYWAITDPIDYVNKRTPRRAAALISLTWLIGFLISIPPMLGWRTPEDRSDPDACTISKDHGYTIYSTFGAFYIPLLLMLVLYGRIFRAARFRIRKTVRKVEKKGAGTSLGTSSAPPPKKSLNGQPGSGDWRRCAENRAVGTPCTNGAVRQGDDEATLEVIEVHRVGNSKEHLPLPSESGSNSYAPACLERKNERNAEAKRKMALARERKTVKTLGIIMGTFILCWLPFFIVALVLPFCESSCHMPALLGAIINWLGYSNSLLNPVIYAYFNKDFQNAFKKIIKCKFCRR

[7] = molecular target: 5-hydroxytryptamine receptor 2A (Rattus norvegicus, UniProt P14842); assay: Compound was evaluated for the binding affinity towards 5-hydroxytryptamine 2A receptor using [3H]ketanserin radioligand.
[8] = molecular target: T2, Adrenergic receptor alpha-1 (Rattus norvegicus, UniProt P15823+P23944+P43140); assay: Binding affinity towards alpha-1 adrenergic receptor using [3H]prazosin radioligand.; assay type: protein assay
T2 sequence (P15823 whole entry): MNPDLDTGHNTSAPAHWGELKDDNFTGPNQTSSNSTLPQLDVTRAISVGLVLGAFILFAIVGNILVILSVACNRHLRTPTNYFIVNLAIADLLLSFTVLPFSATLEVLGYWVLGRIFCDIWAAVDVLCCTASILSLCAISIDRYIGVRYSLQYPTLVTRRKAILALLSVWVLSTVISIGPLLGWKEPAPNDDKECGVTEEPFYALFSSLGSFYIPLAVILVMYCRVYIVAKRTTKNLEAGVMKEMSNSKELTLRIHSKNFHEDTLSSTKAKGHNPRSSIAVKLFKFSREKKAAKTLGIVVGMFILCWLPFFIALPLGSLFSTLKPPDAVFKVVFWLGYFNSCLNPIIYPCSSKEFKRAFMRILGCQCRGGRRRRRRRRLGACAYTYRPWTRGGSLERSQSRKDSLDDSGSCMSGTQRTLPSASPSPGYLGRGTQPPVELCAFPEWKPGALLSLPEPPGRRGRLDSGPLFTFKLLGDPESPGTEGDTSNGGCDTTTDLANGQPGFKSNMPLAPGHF
T2 sequence (P23944 whole entry): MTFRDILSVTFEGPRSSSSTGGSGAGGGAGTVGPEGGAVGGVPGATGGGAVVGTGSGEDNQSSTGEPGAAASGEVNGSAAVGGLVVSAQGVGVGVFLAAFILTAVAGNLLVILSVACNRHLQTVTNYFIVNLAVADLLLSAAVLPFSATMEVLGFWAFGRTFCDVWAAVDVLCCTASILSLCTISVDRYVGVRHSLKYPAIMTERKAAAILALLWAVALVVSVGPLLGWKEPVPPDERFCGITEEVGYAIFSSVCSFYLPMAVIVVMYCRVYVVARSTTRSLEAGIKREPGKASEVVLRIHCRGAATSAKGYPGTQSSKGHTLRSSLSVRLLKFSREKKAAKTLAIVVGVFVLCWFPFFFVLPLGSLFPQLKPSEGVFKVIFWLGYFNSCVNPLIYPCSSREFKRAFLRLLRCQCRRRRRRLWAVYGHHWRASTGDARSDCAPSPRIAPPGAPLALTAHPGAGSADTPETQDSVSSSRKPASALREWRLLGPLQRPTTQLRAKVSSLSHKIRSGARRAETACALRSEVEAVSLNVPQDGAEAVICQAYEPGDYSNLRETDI
T2 sequence (P43140 whole entry): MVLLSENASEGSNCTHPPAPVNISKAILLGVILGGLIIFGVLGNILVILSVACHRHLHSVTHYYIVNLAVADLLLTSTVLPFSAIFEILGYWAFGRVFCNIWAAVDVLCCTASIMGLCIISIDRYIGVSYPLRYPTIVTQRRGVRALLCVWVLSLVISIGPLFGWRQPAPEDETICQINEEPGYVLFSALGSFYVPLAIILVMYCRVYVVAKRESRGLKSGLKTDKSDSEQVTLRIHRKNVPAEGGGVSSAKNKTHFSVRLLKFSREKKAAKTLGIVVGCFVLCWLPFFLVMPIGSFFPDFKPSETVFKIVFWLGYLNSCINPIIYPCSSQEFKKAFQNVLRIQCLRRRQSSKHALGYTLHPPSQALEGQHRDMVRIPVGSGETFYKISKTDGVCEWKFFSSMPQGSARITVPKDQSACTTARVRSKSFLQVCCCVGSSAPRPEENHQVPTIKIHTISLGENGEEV

D(2) dopamine receptor = D(2) dopamine receptor (Rattus norvegicus, UniProt P61169); assay: Binding affinity towards dopamine receptor D2 using [3H]-raclopride radioligand.
Mus musculus [9] = assay: Effect on rectal temperature in mice at dose of 10 mg/kg po.; assay type: functional
Mus musculus [10] = assay: Effect on rectal temperature in mice at dose of 20 mg/kg po; assay type: functional
Mus musculus [11] = assay: Effect on rectal temperature in mice at dose of 20 mg/kg sc.; assay type: functional
Mus musculus [12] = assay: Effect on rectal temperature in mice at dose of 30 mg/kg po; assay type: functional
Mus musculus [13] = assay: Effect on rectal temperature in mice at dose of 40 mg/kg po; assay type: functional

D(2) dopamine receptor, sequence (P61169 whole entry): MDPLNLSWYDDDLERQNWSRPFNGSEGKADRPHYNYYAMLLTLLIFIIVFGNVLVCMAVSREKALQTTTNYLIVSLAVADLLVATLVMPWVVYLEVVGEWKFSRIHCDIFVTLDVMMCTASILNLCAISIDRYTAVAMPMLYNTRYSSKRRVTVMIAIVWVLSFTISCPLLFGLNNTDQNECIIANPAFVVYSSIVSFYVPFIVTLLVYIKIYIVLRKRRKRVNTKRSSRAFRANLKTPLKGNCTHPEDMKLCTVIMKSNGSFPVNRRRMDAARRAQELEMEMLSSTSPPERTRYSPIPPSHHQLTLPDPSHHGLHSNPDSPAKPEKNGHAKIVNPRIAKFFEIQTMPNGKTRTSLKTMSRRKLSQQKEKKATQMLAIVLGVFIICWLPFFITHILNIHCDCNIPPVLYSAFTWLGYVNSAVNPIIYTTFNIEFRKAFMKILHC
5-hydroxytryptamine receptor 2A, sequence (P14842 whole entry): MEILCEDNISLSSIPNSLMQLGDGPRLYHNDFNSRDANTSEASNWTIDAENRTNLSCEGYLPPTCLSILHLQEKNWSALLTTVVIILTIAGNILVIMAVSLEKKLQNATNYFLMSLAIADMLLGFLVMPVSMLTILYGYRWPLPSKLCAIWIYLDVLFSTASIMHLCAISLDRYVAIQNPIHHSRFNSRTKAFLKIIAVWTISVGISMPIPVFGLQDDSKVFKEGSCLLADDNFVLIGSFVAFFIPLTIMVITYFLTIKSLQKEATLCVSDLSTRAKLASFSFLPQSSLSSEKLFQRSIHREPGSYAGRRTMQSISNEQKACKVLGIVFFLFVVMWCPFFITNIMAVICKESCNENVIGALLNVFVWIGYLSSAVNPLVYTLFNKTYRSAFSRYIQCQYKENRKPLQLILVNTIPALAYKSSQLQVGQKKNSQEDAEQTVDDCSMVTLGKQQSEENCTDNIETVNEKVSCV

Compound	T decrease (Mus musculus [1]) [°C]	T decrease (Mus musculus [2]) [°C]	T decrease (Mus musculus [3]) [°C]	T decrease (Mus musculus [4]) [°C]	ED50 (Mus musculus [5]) [mg/kg]	Max effect (Mus musculus [5]) [s]	Ki [6] [nM]	Ki [7] [nM]	Ki [8] [nM]	Ki (D(2) dopamine receptor) [nM]	T decrease (Mus musculus [9]) [°C]	T decrease (Mus musculus [10]) [°C]	T decrease (Mus musculus [11]) [°C]	T decrease (Mus musculus [12]) [°C]	T decrease (Mus musculus [13]) [°C]
CCCN(CCC)C1CCc2cccc(O)c2C1 (stereo not given) [8-OH-DPAT]	-0.9	-2.26	-1.7	-1.66	0.58	132.2									
COc1ccccc1N1CCN(CN2C(=O)C3CCCCN3C2=O)CC1 (stereo not given)	0.37	-1.46	0.06	-0.78	3.58	130.8	31.7	> 1000	> 1000	> 10000	-0.3	0.22	-1.56	-0.28	-0.85
O=C1C2CCCCN2C(=O)N1CCCCN1CCN(c2cccc(C(F)(F)F)c2)CC1 (stereo not given)	-0.58	-1.55	-0.77	-0.92	1.25	56.5	9.9		72.4	90.6	0.07	-0.55	-2.73	-1.23	-1
